Reference: ChEMBL document CHEMBL1201862, “PubChem BioAssay data set” (2004)
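Test compounds were applied to cells in 96-well plates for 48 hours at 5 doses. At the GI50, growth is halved.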 Calls of active or inactive are those of the source. Rule as the data show it: active = GI50 up to about 1.1 µM and inactive = higher.

Columns and labels:
Assay in all cases: DTP human tumour cell line panel, 48 h
[1] = tested on: A549
[2] = tested on: SR
[3] = tested on: SK-MEL-5
[4] = tested on: SNB-75
[5] = tested on: UO-31
[6] = tested on: RPMI-8226
[7] = tested on: OVCAR-3
[8] = tested on: SF-539
[9] = tested on: SK-MEL-28
[10] = tested on: UACC-257
[11] = tested on: IGROV-1
[12] = tested on: LOX IMVI
[13] = tested on: HCT-116
[14] = tested on: A498
[15] = tested on: K562
[16] = tested on: SK-MEL-2
[17] = tested on: SK-OV-3
[18] = tested on: NCI-H460
[19] = tested on: NCI/ADR-RES
[20] = tested on: MCF7

Compound | GI50 [1] | GI50 [2] | GI50 [3] | GI50 [4] | GI50 [5] | GI50 [6] | GI50 [7] | GI50 [8] | GI50 [9] | GI50 [10] | GI50 [11] | GI50 [12] | GI50 [13] | GI50 [14] | GI50 [15] | GI50 [16] | GI50 [17] | GI50 [18] | GI50 [19] | GI50 [20]
COc1ccc(N2C(=O)C(N3C(=O)C=CC3=O)C2C=O)cc1 (centres undefined) | > 100 µM (inactive) | > 100 µM (inactive) | > 100 µM (inactive) | > 100 µM (inactive) | > 100 µM (inactive) | > 100 µM (inactive) | > 100 µM (inactive) | > 100 µM (inactive) | > 100 µM (inactive) | > 100 µM (inactive) | > 100 µM (inactive) | > 100 µM (inactive) | > 100 µM (inactive) | > 100 µM (inactive) | > 100 µM (inactive) | > 100 µM (inactive) | > 100 µM (inactive) | > 100 µM (inactive) |  | 
CNc1nc2c(C)ccc3nc(N(C)C)nc-3c2n1C | > 10 µM (inactive) |  | > 10 µM (inactive) | > 10 µM (inactive) | > 10 µM (inactive) | > 10 µM (inactive) | > 10 µM (inactive) | > 10 µM (inactive) | > 10 µM (inactive) | > 10 µM (inactive) | > 10 µM (inactive) |  | > 10 µM (inactive) | > 10 µM (inactive) | > 10 µM (inactive) | > 10 µM (inactive) | > 10 µM (inactive) | > 10 µM (inactive) | > 10 µM (inactive) | > 10 µM (inactive)
ON1CCc2c([nH]c3ccccc23)C1c1ccc(Cl)cc1 (centres undefined) | 30 µM (inactive) | 20.3 µM (inactive) |  | 30.3 µM (inactive) | 25.8 µM (inactive) | 29.6 µM (inactive) | 27.4 µM (inactive) | 30.5 µM (inactive) | 36.4 µM (inactive) | 30.1 µM (inactive) |  | 18.8 µM (inactive) | 0.384 µM (active) | 33.1 µM (inactive) | 18.2 µM (inactive) | 23.1 µM (inactive) | 46.7 µM (inactive) |  |  | 
CC/C(C)=C1\CCC(CN2CCOCC2)C1=O (centres undefined) | 21.2 µM (inactive) | 11.2 µM (inactive) | 28.5 µM (inactive) | 25.2 µM (inactive) | 21.6 µM (inactive) | 2.21 µM (inactive) | 15 µM (inactive) | 20.2 µM (inactive) | 17.4 µM (inactive) | 17.3 µM (inactive) | 20.4 µM (inactive) | 16.4 µM (inactive) | 13.9 µM (inactive) | 21.2 µM (inactive) | 7.46 µM (inactive) | 17.8 µM (inactive) |  | 17.8 µM (inactive) |  | 
COc1ccc(CC2C3=C(CCCC3)CCN2C)cc1 (centres undefined) | > 100 µM (inactive) |  | > 100 µM (inactive) | 55.2 µM (inactive) | 58.3 µM (inactive) | > 100 µM (inactive) | > 100 µM (inactive) | > 100 µM (inactive) | > 100 µM (inactive) | > 100 µM (inactive) | > 100 µM (inactive) | > 100 µM (inactive) | 58.2 µM (inactive) | > 100 µM (inactive) | 39 µM (inactive) | > 100 µM (inactive) | > 100 µM (inactive) | > 100 µM (inactive) | > 100 µM (inactive) | > 100 µM (inactive)
O=C1NN(Cc2ccccc2)C(=O)N2CCC[C@@H]12 | > 100 µM (inactive) |  | > 100 µM (inactive) | 0.0179 µM (active) |  |  | > 100 µM (inactive) | > 100 µM (inactive) | > 100 µM (inactive) | > 100 µM (inactive) | > 100 µM (inactive) | > 100 µM (inactive) | > 100 µM (inactive) | > 100 µM (inactive) |  | > 100 µM (inactive) | > 100 µM (inactive) | > 100 µM (inactive) | > 100 µM (inactive) | > 100 µM (inactive)
C[C@@H](CC(O)C1OC1(C)C)[C@@H]1CC[C@]2(C)C3=CCC4C(C)(C)C(O)CC[C@]4(C)C3CCC12C (some centres undefined) | 12.7 µM (inactive) | 16.3 µM (inactive) |  |  | 18.6 µM (inactive) | 10.3 µM (inactive) | 34.7 µM (inactive) | 17.9 µM (inactive) | 18.2 µM (inactive) | 16.3 µM (inactive) | 31.3 µM (inactive) | 24.8 µM (inactive) | 9.89 µM (inactive) | 26.5 µM (inactive) | 6.84 µM (inactive) | 18.6 µM (inactive) | 19.8 µM (inactive) | 17.3 µM (inactive) |  | 
COC(=O)C(CC1=C(O)Nc2ccccc2N1)/C(=N/NC(N)=O)C(=O)Nc1ccccc1C (centres undefined) | > 100 µM (inactive) | 20.8 µM (inactive) | 93.5 µM (inactive) | > 100 µM (inactive) | > 100 µM (inactive) | 21 µM (inactive) | > 100 µM (inactive) | > 100 µM (inactive) | 34.7 µM (inactive) | > 100 µM (inactive) | > 100 µM (inactive) | 17.8 µM (inactive) | 18.2 µM (inactive) | > 100 µM (inactive) | 97.7 µM (inactive) | > 100 µM (inactive) | > 100 µM (inactive) | 28.8 µM (inactive) |  | 
COc1ccccc1/C=C1\CCC(CNc2ccc(Cl)cc2)C1=O (centres undefined) | 5.16 µM (inactive) | 1.76 µM (inactive) | 3.16 µM (inactive) | 15 µM (inactive) | 3.18 µM (inactive) | 1.34 µM (inactive) | 10.2 µM (inactive) | 5.82 µM (inactive) | 13.2 µM (inactive) | 13.8 µM (inactive) | 5.83 µM (inactive) | 0.254 µM (active) | 4.38 µM (inactive) | 13.8 µM (inactive) | 0.215 µM (active) | 13.2 µM (inactive) | 1.73 µM (inactive) | 1.43 µM (inactive) |  | 
O=c1c2c(-c3ccccc3)c3ccccc3nc2cnn1-c1ccccc1 | > 100 µM (inactive) | 33.2 µM (inactive) | > 100 µM (inactive) | > 100 µM (inactive) | > 100 µM (inactive) | > 100 µM (inactive) | 55.5 µM (inactive) | > 100 µM (inactive) | > 100 µM (inactive) | > 100 µM (inactive) | > 100 µM (inactive) | > 100 µM (inactive) | > 100 µM (inactive) | > 100 µM (inactive) | 42.3 µM (inactive) | > 100 µM (inactive) | > 100 µM (inactive) | > 100 µM (inactive) |  | 
CCc1n[nH]c(=O)n1/N=C(\C)c1ccc([N+](=O)[O-])cc1 | 86.7 µM (inactive) |  | > 100 µM (inactive) |  | > 100 µM (inactive) | > 100 µM (inactive) | > 100 µM (inactive) |  | > 100 µM (inactive) | > 100 µM (inactive) | 82.6 µM (inactive) | 49.4 µM (inactive) | > 100 µM (inactive) |  | 97.7 µM (inactive) | > 100 µM (inactive) |  | 46.2 µM (inactive) | > 100 µM (inactive) | 30.2 µM (inactive)
COC(=O)C1C2CC3C(OC(=O)C31)C2OC(=O)[C@](OC)(c1ccccc1)C(F)(F)F (some centres undefined) | > 100 µM (inactive) | > 100 µM (inactive) | > 100 µM (inactive) | > 100 µM (inactive) | > 100 µM (inactive) | > 100 µM (inactive) | > 100 µM (inactive) | > 100 µM (inactive) | > 100 µM (inactive) | > 100 µM (inactive) | > 100 µM (inactive) | > 100 µM (inactive) | > 100 µM (inactive) | > 100 µM (inactive) | > 100 µM (inactive) | > 100 µM (inactive) | > 100 µM (inactive) | > 100 µM (inactive) |  | 
CCn1c2ccccc2n2c(=O)c3c(c(C#N)c12)CCCC3 | > 100 µM (inactive) |  | > 100 µM (inactive) |  | 93.5 µM (inactive) |  | > 100 µM (inactive) | > 100 µM (inactive) | > 100 µM (inactive) | > 100 µM (inactive) | > 100 µM (inactive) | > 100 µM (inactive) | > 100 µM (inactive) | > 100 µM (inactive) | > 100 µM (inactive) | > 100 µM (inactive) | > 100 µM (inactive) | > 100 µM (inactive) | > 100 µM (inactive) | > 100 µM (inactive)
CC(=O)O[C@H]1CC[C@@]2(C)C(=CC[C@@H]3[C@@H]2CC[C@]2(C)C(=N/O)/C(=C/c4ccc([N+](=O)[O-])cc4)C[C@@H]32)C1 | 4.55 µM (inactive) |  | 1.69 µM (inactive) | 10 µM (inactive) | 4.44 µM (inactive) | 1.06 µM (active) | 2.47 µM (inactive) | 29.3 µM (inactive) | 11 µM (inactive) | 0.0304 µM (active) | 12.8 µM (inactive) | 6.52 µM (inactive) | 3.97 µM (inactive) | 4.71 µM (inactive) | 3.1 µM (inactive) | 3.53 µM (inactive) | 11.9 µM (inactive) | > 100 µM (inactive) | 6.84 µM (inactive) | 
COc1ccc(C2NC3=C(CCCC3)C3(C#N)C(=O)N=C(N)C23C#N)cc1 (centres undefined) | > 100 µM (inactive) |  | > 100 µM (inactive) |  | > 100 µM (inactive) | > 100 µM (inactive) |  |  | > 100 µM (inactive) | > 100 µM (inactive) | > 100 µM (inactive) | > 100 µM (inactive) | > 100 µM (inactive) | > 100 µM (inactive) | > 100 µM (inactive) | > 100 µM (inactive) | > 100 µM (inactive) | > 100 µM (inactive) | > 100 µM (inactive) | > 100 µM (inactive)
CN/C=C(\C(=O)c1ccc(OC)c(OC)c1)c1ccc(OC)cc1 | 34.6 µM (inactive) | 16.3 µM (inactive) | 17.4 µM (inactive) | 30.1 µM (inactive) | 12.2 µM (inactive) | 3.52 µM (inactive) |  | 1.25 µM (inactive) | 19.5 µM (inactive) | 10.7 µM (inactive) | 27.4 µM (inactive) | 14.2 µM (inactive) | 4.06 µM (inactive) | 13.3 µM (inactive) | 6.43 µM (inactive) | 15.7 µM (inactive) | 45.9 µM (inactive) | 19.2 µM (inactive) |  | 
